For the experiment, the target named is T1, UCHL1 (Homo sapiens, UniProt P09936).
T1 construct: made in house; host or cells: HEK293T
T1 sequence (P09936 1-223): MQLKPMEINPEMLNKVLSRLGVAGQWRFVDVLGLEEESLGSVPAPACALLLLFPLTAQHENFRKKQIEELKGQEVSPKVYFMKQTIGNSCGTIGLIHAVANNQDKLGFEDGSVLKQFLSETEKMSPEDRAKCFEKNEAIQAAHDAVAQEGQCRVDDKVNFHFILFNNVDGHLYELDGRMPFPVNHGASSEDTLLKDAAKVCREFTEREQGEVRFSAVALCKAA
Description: UCHL1 biochemical IC50 assay (fluorescence polarisation). As to conditions: 30 min enzyme/compound pre-incubation at room temp, read after 2 hr incubation, read-out: Activity range (UCHL1 biochemical IC50 assay). An excerpt:
Biological Activity of Compounds of the Invention Abbreviations: TAMRA carboxytetramethylrhodamine PCR polymerase chain reaction PBS phosphate buffered saline EDTA ethylenediaminetetraacetic acid Tris 2-amino-2-(hydroxymethyl)-1,3-propanediol NP-40 Nonidet P-40, octylphenoxypolyethoxyethanol BSA bovine serum albumin In Vitro UCHL1 Inhibition Assay Expression and Purification of UCHL1
The UCHL1 construct was PCR amplified and cloned into a pFLAG-CMV-6a vector (Sigma-Aldrich) with an N-terminal FLAG tag. HEK293T cells were transfected with FLAG-UCHL1 using TransIT-LT1 transfection reagent (Mirus) according to the manufacturer's instructions. Cells were harvested 40 hours after transfection. Cells were washed once with PBS and scraped in lysis buffer (50 mM Tris, pH 7.5, 150 mM NaCl, 3 mM EDTA, 0.5% NP40, 10% glycerol, 5 mM beta-mercaptoethanol, protease inhibitors (complete mini, Roche) and phosphatase inhibitors (PhosSTOP mini, Roche). Lysates were incubated for 30 min on ice and centrifuged at 1200 rpm for 10 min at 4° C. Soluble supernatant was added to FLAG affinity resin (EZview Rad ANTI-FLAG M2 affinity gel, Sigma-Aldrich) equilibrated in low salt buffer (20 mM Tris, pH 7.5, 150 mM NaCl, 0.5 mM EDTA, 5 mM beta-mercaptoethanol) and incubated at 4° C. for 3 hours rotating. The resin was spun at 2000 rpm for 2 min and the supernatant was removed. The resin was washed two times with low salt buffer and one time with high salt buffer (20 mM Tris, pH 7.5, 500 mM NaCl, 0.5 mM EDTA, 5 mM beta-mercaptoethanol, protease inhibitors (complete mini, Roche) and phosphatase inhibitors (PhosSTOP mini, Roche). To elute the bound UCHL1, elution buffer (10 mM Tris, pH 7.5, 150 mM NaCl, 0.5 mM FDTA, 10% glycerol, 0.5% NP40, 5 mM beta-mercaptoethanol, 0.15 mg/ml 3×FLAG peptide (Sigma-Aldrich)) was added to the resin and incubated at 4° C. for 2.5 hours rotating. The resin was centrifuged at 4000 rpm for 30 seconds, and the supernatant containing purified FLAG-UCHL1 was removed and stored at −80° C.
UCHL1 Biochemical IC50 Assay
Dilution plates were prepared at 21 times the final concentration (2100 μM for a final concentration of 100 µM) in 50% DMSO in a 96-well polypropylene V-bottom plate (Greiner #651201). A typical 8-point dilution series to be 100, 30, 10, 3, 1, 0.3, 0.1, 0.03 μM final. Reactions were performed in duplicate in black 384 well plates (small volume, Greiner 784076) in a final reaction volume of 21 μl. Either 1 μl of 50% DMSO or diluted compound was added to the plate. UCHL1 was diluted in reaction buffer (20 mM Tris, pH 7.5, 100 mM NaCl, 0.05% Tween 20, 0.5 mg/ml BSA, 5 mM—beta mercaptoethanol) to the equivalent of 0.05 μl/well and 10 μl of diluted UCHL1 was added to the compound. Enzyme and compound were incubated for 30 min at room temp. Reactions were initiated by the addition of 50 nM of TAMRA labelled peptide linked to ubiquitin via an iso-peptide bond as fluorescence polarisation substrate. Reactions were read immediately after addition of substrate and following a 2 hr incubation at room temperature. Readings were performed on a Pherastar Plus (BMG Labtech). λ Excitation 540 nm; k Emission 590 nm.
In general terms: In fluorescence polarisation assays a small probe gives low polarisation when free and higher when bound to something large.

Molecules are shown by their SMILES. Some results are limits rather than exact numbers.

In general, IC50 refers to the point on the concentration scale where inhibition reaches its midpoint. Turning to `CC(C)S(=O)(=O)N1CCn2nc(NC(=O)[C@H]3CCN(C#N)C3)cc2C1` [Example 240, (S)-1-cyano-N-(5-(isopropylsulfonyl)-4,5,6,7-tetrahydropyrazolo[1,5-a]pyrazin-2 yl)pyrrolidine-3-carboxamide], the IC50 is < 1 µM. In the case of `Cc1nc(NC(=O)[C@H]2CCN(C#N)C2)cn1Cc1ccccc1` [Example 178, (S)—N-(1-benzyl-2-methyl-1H-imidazol-4-yl)-1-cyanopyrrolidine-3-carboxamide], the IC50 was < 1 µM. With `N#CN1CC[C@H](C(=O)Nc2ncc(Cc3ccccc3)s2)C1` [Example 57, (S)-N-(5-benzylthiazol-2-yl)-1-cyanopyrrolidine-3-carboxamide] the figure was < 1 µM. In the case of `CC(C)(C)c1cc(NC(=O)C2CCN(C#N)C2)[nH]n1` (stereo not drawn) [Example 17, N-(3-(tert-butyl)-1H-pyrazol-5-yl)-1-cyano-pyrrolidine-3-carboxamide] it was 1 to 10 µM; in that of `N#CN1CCC(C(=O)Nc2ncc(-c3ccc(Cl)cc3)s2)C1` (stereo not drawn) [Example 4, N-(5-(4-chlorophenyl)thiazol-2-yl)-1-cyano-pyrrodine-3-carboxamide], < 1 µM; in that of `C[C@@H]1CN(C#N)C[C@H]1C(=O)Nc1cn([C@@H](C)c2ccccc2)cn1` [Example 173, (3S,4S)-1-cyano-4-methyl-N-(1-((S)-1-phenylethyl)-1H-imidazol-4-yl)pyrrolidine-3-carboxamide], < 1 µM. In the case of `CC(=O)Nc1ccc(-c2cnc(NC(=O)C3CCN(C#N)C3)s2)cc1` (stereo not drawn) [Example 114, N-(5-(4-acetamidophenyl)thiazol-2-yl)-1-cyanopyrrolidine-3-carboxamide] it was < 1 µM. As to `Cc1ccc2nc(NC(=O)C3CCN(C#N)C3)sc2c1` (stereo not drawn) [Example 19, 1-cyano-N-(6-methylbenzo[d]thiazol-2-yl)pyrrolidine-3-carboxamide], the IC50 is 1 to 10 µM. With `COc1ccc(-c2ccc3nc(NC(=O)[C@H]4CCN(C#N)C4)sc3c2)cc1` [Example 121, (S)-1-cyano-N-(6-(4-methoxyphenyl)benzo[d]thiazol-2-yl)pyrrolidine-3-carboxamide] the figure was 1 to 10 µM. In the case of `N#CN1CC[C@H](C(=O)Nc2nc3c(s2)CN(C(=O)c2ccccn2)CC3)C1` [Example 193, (S)-1-cyano-N-(5-picolinoyl-4,5,6,7-tetrahydrothiazolo[5,4-c]pyridin-2-yl)pyrrolidine-3-carboxamide] it was < 1 µM; in that of `CN1CCN(c2cnc(NC(=O)C3CCN(C#N)C3)s2)CC1` (stereo not drawn) [Example 92, 1-cyano-N-(5-(4-methylpiperazin-1-yl)thiazol-2-yl)pyrrolidine-3-carboxamide], < 1 µM; in that of `N#Cc1ccc(C2CC2)cc1-n1cnc(NC(=O)[C@H]2CCN(C#N)C2)c1` [Example 306, (S)-1-cyano-N-(1-(2-cyano-5-cyclopropylphenyl)-1H-imidazol-4-yl)pyrrolidine-3-carboxamide], < 1 µM.

On to `N#CN1CCC(C(=O)Nc2ccc(C3CCCCC3)cn2)C1` (stereo not drawn) [Example 38, 1-cyano-N-(5-cyclohexyl-pyridin-2-yl)pyrrolidine-3-carboxamide], for which the IC50 lay in the range of 1 to 10 µM. For the compound `N#CN1CC[C@H](C(=O)Nc2cn(Cc3ccccc3)cn2)C1` [Example 146, (S)—N-(1-benzyl-1H-imidazol-4-yl)-1-cyanopyrrolidine-3-carboxamide], the IC50 was < 1 µM.

On to `N#CN1CCC(C(=O)Nc2cnc(-c3ccccc3)nc2)C1` (stereo not drawn) [Example 37, 1-cyano-N-(2-phenyl-pyrimidin-5-yl)pyrrolidine-3-carboxamide], for which the IC50 was 10 to 30 µM. With `N#CN1CCC(C(=O)Nc2ncc(-c3ccc(N)cc3)s2)C1` (stereo not drawn) [Example 111, N-(5-(4-aminophenyl)thiazol-2-yl)-1-cyanopyrrolidine-3-carboxamide] the figure was < 1 µM; with `N#CN1CC(C(=O)Nc2ncc(-c3ccccc3)s2)C2CC21` (stereo not drawn) [Example 280, 2-cyano-N-(5-phenylthiazol-2-yl)-2-azabicyclo[3.1.0]hexane-4-carboxamide], 1 to 10 µM. On to `N#CN1CC[C@H](C(=O)Nc2cn(Cc3cccnc3)cn2)C1` [Example 169, (S)-1-cyano-N-(1-(pyridin-3-ylmethyl)-1H-imidazol-4-yl)pyrrolidine-3-carboxamide], for which the IC50 was < 1 µM. With `Cn1ccc(C(=O)N2CCc3nc(NC(=O)[C@H]4CCN(C#N)C4)sc3C2)n1` [Example 194, (S)-1-cyano-N-(5-(1-methyl-1H-pyrazole-3-carbonyl)-4,5,6,7-tetrahydrothiazolo[5,4-c]pyridin-2-yl)pyrrolidine-3-carboxamide] the figure was < 1 µM; with `COC[C@@H]1CCCN1Cc1cnc(NC(=O)[C@H]2CCN(C#N)C2)s1` [Example 144, (S)-1-cyano-N-(5-(((S)-2-(methoxymethyl)pyrrolidin-1-yl)methyl)thiazol-2-yl)pyrrolidine-3-carboxamide], 1 to 10 µM.

`C#Cc1ccc2cnc(NC(=O)[C@H]3CCN(C#N)[C@H]3C)cc2c1` [Example 264, (2S,3S)-1-cyano-N-(6-ethynylisoquinolin-3-yl)-2-methylpyrrolidine-3-carboxamide]: the IC50 lay within 1 to 10 µM. With `Cc1noc(C)c1-c1ccn2cc(NC(=O)[C@H]3CCN(C#N)C3)nc2c1` [Example 127, (S)-1-cyano-N-(7-(3,5-dimethylisoxazol-4-yl)imidazo[1,2-a]pyridin-2-yl)pyrrolidine-3-carboxamide] the figure was < 1 µM. `C[C@H]1[C@@H](C(=O)Nc2cc(-c3ccccc3)[nH]n2)CCN1C#N` [Example 75, (2S,3S)-1-cyano-2-methyl-N-(5-phenyl-1H-pyrazol-3-yl)pyrrolidine-3-carboxamide]: the half-maximal inhibitory concentration (IC50) was < 1 µM.

Consider `CC1CC(C(=O)Nc2ncc(N3CCCCC3)s2)CN1C#N` (stereo not drawn) [Example 105, 1-cyano-5-methyl-N-(5-(piperidin-1-yl)thiazol-2-yl)pyrrolidine-3-carboxamide], for which the IC50 is 1 to 10 µM. As to `Cn1nccc1-c1ccc2nc(NC(=O)[C@H]3CCN(C#N)C3)sc2c1` [Example 123, (S)-1-cyano-N-(6-(1-methyl-1H-pyrazol-5-yl)benzo[d]thiazol-2-yl)pyrrolidine-3-carboxamide], the IC50 is < 1 µM.

With `Cc1noc(C)c1-c1ccc2nc(NC(=O)[C@H]3CCN(C#N)[C@H]3C)sc2c1` [Example 133, (2S,3S)-1-cyano-N-(6-(3,5-dimethylisoxazol-4-yl)benzo[d]thiazol-2-yl)-2-methyl-pyrrolidine-3-carboxamide], the IC50 is < 1 µM.

`N#CN1CC[C@H](C(=O)Nc2cn(C3CCCN(Cc4ccccc4)C3)cn2)C1` (stereo partly drawn) [Example 186, (3S)—N-(1-(1-benzylpiperidin-3-yl)-1H-imidazol-4-yl)-1-cyanopyrrolidine-3-carboxamide]: the IC50 is < 1 µM.

`Cc1nccc(-n2cnc(NC(=O)[C@H]3CCN(C#N)C3)c2)n1` [Example 176, (S)-1-cyano-N-(1-(2-methylpyrimidin-4-yl)-1H-imidazol-4-yl)pyrrolidine-3-carboxamide]: the IC50 lay in the range of 1 to 10 µM.

Consider `N#CN1CC[C@H](C(=O)Nc2cn(-c3cccc(F)c3)cn2)C1` [Example 151, (S)-1-cyano-N-(1-(3-fluorophenyl)-1H-imidazol-4-yl)pyrrolidine-3-carboxamide], for which the half-inhibitory concentration (IC50) was < 1 µM. In the case of `N#CN1CCC(C(=O)Nc2ccc(-c3ccccn3)cn2)C1` (stereo not drawn) [Example 32, N-([2,3′-bipyridin]-6′-yl)-1-cyano-pyrrolidine-3-carboxamide] it was 1 to 10 µM.
